# Test results: patent US20260272891A1, “TREATMENT OF AUTOIMMUNE DISEASES AND CANCER WITH PROTEASE INHIBITORS” (Lundquist Institute for Biomedical Innovation at …, priority 2023, published 2026)
# How the values were obtained:
# [1] = tested on: PBMC stimulated by LPS; experiment: ELISA cytokines, frozen PBMCs stimulated by LPS; assay type: cell-based, human; conditions: for production of LPS-stimulated IL-6 / production of LPS-stimulated IL-10 / production of LPS-stimulated IL-23 / production of LPS-stimulated TNF-α: dose response, three concentrations, donors D186, D317, D93, versus LPS alone
# Description: PBMC were purified by Ficoll-Hypaque gradient centrifugation (Pharmacia, Piscataway, NJ) and stimulated after freshly isolated as described, or cryopreserved in cryoprotective medium consisting of 90% fetal bovine serum (FBS) in combination with 10% dimethyl sulfoxide (DMSO) at 20 to 30 million cells per vial, and thawed for later stimulation as described.
# Cytokine dose-response analysis was performed using linear regression model testing dose (ordinal variable) and adjusting for the individual donors.
# [2] = tested on: PBMCs; experiment: Flow cytometry, FSC versus SSC gating, percentage of PBMCs; conditions: for percentage of PBMCs (FSC versus SSC gating): 24 hrs
# [3] = tested on: 4T1 cells; experiment: Killing of 4T1 cells; assay type: cell-based, mouse
# [4] = tested on: CD3+ T cells; experiment: Flow cytometry, Propidium iodide/CD3 staining to verify drug toxicity; conditions: for toxicity in gated CD3+ T cells compared to DMSO treatment only: three concentrations, donors D186, D317, D93
# [5] = tested on: T cells activated using beads; experiment: ELISA cytokines, T cell activation with beads; assay type: cell-based, human; conditions: 5000 ng/ml; for IFN-γ production / IL10 production / IL-4 levels / TNF-α production: activated cells (Bead); for IL-2 production: activated cells, compared to negative control
# Description: Conditioned media were tested undiluted, or diluted 1:3 and 1:9 to determine tumor necrosis factor (TNF) α concentration.
# [6] = tested on: Monocytes stimulated by LPS; experiment: ELISA cytokines, monocytes stimulated by LPS; assay type: cell-based, human; conditions: for IL-16 levels / IL-6 / IL-10 / IL-23 / TNF-α: 5000 ng/mL, LPS; for IL-6 / IL-10 / IL-23 / TNF-α: donors D186, D317, D93
# Excerpt: For all experiments, peripheral blood mononuclear cells (PBMC) were isolated either from healthy blood donors as above or purchased from HemaCare as Leukopaks (D186, D317 and D93). PBMC were purified by Ficoll-Hypaque gradient centrifugation (Pharmacia, Piscataway, NJ) and stimulated after freshly isolated as described, or cryopreserved in cryoprotective medium consisting of 90% fetal bovine serum (FBS) in combination with 10% dimethyl sulfoxide (DMSO) at 20 to 30 million cells per vial, and thawed for later stimulation as described. For studies with enriched monocytes, PBMC were cultured in 1% FBS in RPMI 1640, and adhered to sterile plastic tissue culture plates for 1-2 hours; followed by washing off nonadherent PBMC. Remaining adherent monocytes were stimulated as described.
# Isolated PBMCs were washed once in 1% FCS RPMI and re-suspended in RPMI-1640 (ThermoFisher Scientific) in 1-2% FCS RPMI. For monocyte isolation, 2×10^6 PBMCs per well were plated in 24-well tissue culture treated plate (ThermoFisher Scientific) at 1 ml each well. Monocytes were allowed to adhere in a 5% CO2 container at 37° C. for 2 hr. Nonadherent cells were removed by thorough washing 2 times with 1% FCS RPMI-1640.
# [7] = tested on: CD14+ cells for monocytes; experiment: Flow cytometry, Propidium iodide/CD14 staining to verify drug toxicity
# [8] = tested on: T cells; conditions: cells from mice; cited from earlier work
# [9] = biological target: SARS-COV-2 Mpro (Severe acute respiratory syndrome coronavirus 2, UniProt P0DTD1); conditions: cited from earlier work
smiles,measurement,setting,value
"CC(C)(C)[C@H](NC(=O)C(F)(F)F)C(=O)N1C[C@H]2[C@@H]([C@H]1C(=O)N[C@H](C#N)C[C@@H]1CCNC1=O)C2(C)C [NMV, nirmatrelvir]",IL-23 levels,"[1]; 5000 ng/ml, LPS, three donors",Two of three donors already had no detectable IL-23 levels
same,production of LPS-stimulated IL-6,[1],diminished
same,production of LPS-stimulated IL-10,[1],diminished
same,production of LPS-stimulated IL-23,[1],diminished
same,production of LPS-stimulated TNF-α,[1],diminished
same,"cytokines except IL-1β (IL-6, IL-10, IL-23, TNF-α)",[1]; frozen PBMCs stimulated with LPS,decrease
same,percentage of PBMCs (FSC versus SSC gating),"[2]; Donor 93, 1250 ng",74.8%
same,percentage of PBMCs (FSC versus SSC gating),"[2]; Donor 93, 2500 ng",76.2%
same,percentage of PBMCs (FSC versus SSC gating),"[2]; Donor 93, 5000 ng",54.6%
same,percentage of PBMCs (FSC versus SSC gating),"[2]; Donor 186, 1250 ng",52.8%
same,percentage of PBMCs (FSC versus SSC gating),"[2]; Donor 186, 2500 ng",44.8%
same,percentage of PBMCs (FSC versus SSC gating),"[2]; Donor 186, 5000 ng",47.7%
same,percentage of PBMCs (FSC versus SSC gating),"[2]; Donor 317, 1250 ng",55.4%
same,percentage of PBMCs (FSC versus SSC gating),"[2]; Donor 317, 2500 ng",64.4%
same,percentage of PBMCs (FSC versus SSC gating),"[2]; Donor 317, 5000 ng",55.9%
same,Peripheral Blood Mononuclear Cells' viability,"[2]; all different concentrations, three donors",Do Not Affect
same,killing of 4T1 cells,[3],killed 4T1 cells in a dose responsive manner
same,cells double positive for Propidium iodide (PI) and CD3 (dead cells),"[4]; Donor 93, 1250 ng",19.2%
same,cells double positive for Propidium iodide (PI) and CD3 (dead cells),"[4]; Donor 93, 2500 ng",17.1%
same,cells double positive for Propidium iodide (PI) and CD3 (dead cells),"[4]; Donor 93, 5000 ng",16.0%
same,cells double positive for Propidium iodide (PI) and CD3 (dead cells),"[4]; Donor 186, 1250 ng",29.9%
same,cells double positive for Propidium iodide (PI) and CD3 (dead cells),"[4]; Donor 186, 2500 ng",31.1%
same,cells double positive for Propidium iodide (PI) and CD3 (dead cells),"[4]; Donor 186, 5000 ng",28.5%
same,cells double positive for Propidium iodide (PI) and CD3 (dead cells),"[4]; Donor 317, 1250 ng",17.9%
same,cells double positive for Propidium iodide (PI) and CD3 (dead cells),"[4]; Donor 317, 2500 ng",16.9%
same,cells double positive for Propidium iodide (PI) and CD3 (dead cells),"[4]; Donor 317, 5000 ng",17.1%
same,toxicity in gated CD3+ T cells compared to DMSO treatment only,[4],similar
same,IFN-γ production,[5],lower
same,IL10 production,[5],lower
same,IL-4 levels,[5],lower when compared to all groups with activated cells
same,TNF-α production,[5],low
same,TNF-α production,[5]; listed as NMR,lower
same,IL-2 production,[5],elevated
same,IL-16 levels,[6]; donors 317 and 93,increasing levels
same,IL-6,[6],decrease
same,IL-10,[6],decrease
same,IL-23,[6],decrease
same,TNF-α,[6],decrease
same,cells double positive for Propidium iodide (PI) and CD14 (dead cells),"[7]; Donor 93, 1250 ng",0.90%
same,cells double positive for Propidium iodide (PI) and CD14 (dead cells),"[7]; Donor 93, 2500 ng",0.74%
same,cells double positive for Propidium iodide (PI) and CD14 (dead cells),"[7]; Donor 93, 5000 ng",0.64%
same,cells double positive for Propidium iodide (PI) and CD14 (dead cells),"[7]; Donor 186, 1250 ng",0.75%
same,cells double positive for Propidium iodide (PI) and CD14 (dead cells),"[7]; Donor 186, 2500 ng",1.28%
same,cells double positive for Propidium iodide (PI) and CD14 (dead cells),"[7]; Donor 186, 5000 ng",0.74%
same,cells double positive for Propidium iodide (PI) and CD14 (dead cells),"[7]; Donor 317, 1250 ng",0.37%
same,cells double positive for Propidium iodide (PI) and CD14 (dead cells),"[7]; Donor 317, 2500 ng",0.31%
same,cells double positive for Propidium iodide (PI) and CD14 (dead cells),"[7]; Donor 317, 5000 ng",0.32%
"CC(C)c1nc(CN(C)C(=O)N[C@H](C(=O)N[C@@H](Cc2ccccc2)C[C@H](O)[C@H](Cc2ccccc2)NC(=O)OCc2cncs2)C(C)C)cs1 [RTV, ritonavir]",production of LPS-stimulated IL-6,[1],no effect
same,production of LPS-stimulated IL-10,[1],no effect
same,production of LPS-stimulated IL-23,[1],no effect
same,production of LPS-stimulated TNF-α,[1],no effect
same,"IL2, IFN-gamma and TNF-alpha secretion",[8],decreasing
same,percentage of PBMCs (FSC versus SSC gating),"[2]; Donor 93, 1250 ng",60.4%
same,percentage of PBMCs (FSC versus SSC gating),"[2]; Donor 93, 2500 ng",62.9%
same,percentage of PBMCs (FSC versus SSC gating),"[2]; Donor 93, 5000 ng",55.9%
same,percentage of PBMCs (FSC versus SSC gating),"[2]; Donor 186, 1250 ng",48.0%
same,percentage of PBMCs (FSC versus SSC gating),"[2]; Donor 186, 2500 ng",51.3%
same,percentage of PBMCs (FSC versus SSC gating),"[2]; Donor 186, 5000 ng",44.9%
same,percentage of PBMCs (FSC versus SSC gating),"[2]; Donor 317, 1250 ng",61.3%
same,percentage of PBMCs (FSC versus SSC gating),"[2]; Donor 317, 2500 ng",56.2%
same,percentage of PBMCs (FSC versus SSC gating),"[2]; Donor 317, 5000 ng",57.4%
same,activity against SARS-COV-2 Mpro,[9],lacks activity
same,killing of 4T1 cells,[3],killed 4T1 cells in a dose responsive manner
same,cells double positive for Propidium iodide (PI) and CD3 (dead cells),"[4]; Donor 93, 1250 ng",19.5%
same,cells double positive for Propidium iodide (PI) and CD3 (dead cells),"[4]; Donor 93, 2500 ng",19.8%
same,cells double positive for Propidium iodide (PI) and CD3 (dead cells),"[4]; Donor 93, 5000 ng",19.5%
same,cells double positive for Propidium iodide (PI) and CD3 (dead cells),"[4]; Donor 186, 1250 ng",27.9%
same,cells double positive for Propidium iodide (PI) and CD3 (dead cells),"[4]; Donor 186, 2500 ng",28.9%
same,cells double positive for Propidium iodide (PI) and CD3 (dead cells),"[4]; Donor 186, 5000 ng",28.6%
same,cells double positive for Propidium iodide (PI) and CD3 (dead cells),"[4]; Donor 317, 1250 ng",18.1%
same,cells double positive for Propidium iodide (PI) and CD3 (dead cells),"[4]; Donor 317, 2500 ng",17.5%
same,cells double positive for Propidium iodide (PI) and CD3 (dead cells),"[4]; Donor 317, 5000 ng",17.8%
same,toxicity in gated CD3+ T cells compared to DMSO treatment only,[4],similar
same,IFN-γ production,[5],higher levels
same,IL10 production,[5],higher
same,IL-4 levels,[5],higher
same,TNF-α production,[5],high levels
same,IL-2 production,[5],elevated
same,IL-16 levels,[6]; donor186,Slightly decreased
same,IL-16 levels,[6]; donors 317 and 93,increasing levels
same,IL-6,[6],decrease
same,IL-10,[6],decrease
same,IL-23,[6],decrease
same,TNF-α,[6],decrease
same,IL-1β,"[6]; monocytes, 5000 ng/ml",decreased
same,cells double positive for Propidium iodide (PI) and CD14 (dead cells),"[7]; Donor 93, 1250 ng",0.90%
same,cells double positive for Propidium iodide (PI) and CD14 (dead cells),"[7]; Donor 93, 2500 ng",1.12%
same,cells double positive for Propidium iodide (PI) and CD14 (dead cells),"[7]; Donor 93, 5000 ng",0.81%
same,cells double positive for Propidium iodide (PI) and CD14 (dead cells),"[7]; Donor 186, 1250 ng",2.14%
same,cells double positive for Propidium iodide (PI) and CD14 (dead cells),"[7]; Donor 186, 2500 ng",1.71%
same,cells double positive for Propidium iodide (PI) and CD14 (dead cells),"[7]; Donor 186, 5000 ng",1.71%
same,cells double positive for Propidium iodide (PI) and CD14 (dead cells),"[7]; Donor 317, 1250 ng",0.42%
same,cells double positive for Propidium iodide (PI) and CD14 (dead cells),"[7]; Donor 317, 2500 ng",0.38%
same,cells double positive for Propidium iodide (PI) and CD14 (dead cells),"[7]; Donor 317, 5000 ng",0.44%
